Test results published in ChEMBL document CHEMBL1201862, “PubChem BioAssay data set” (2004).
Calls of active or inactive are those of the source.

Key:
cells [1] = test: cells
Caspase-6 = Caspase-6 (Homo sapiens, UniProt P55212); test: human caspase-6 inhibitors, dose response, biochemical, VEID-R110 fluorescence, cherry-pick (AID 720632)
[2] = test system: Streptococcus sp. 'group A'; test: growth inhibition of control SK(-) GAS strain, dose response, counter-screen for streptokinase expression inhibitor project, luminescence, kanamycin, BacTiterGlo, confirmation (AID 1900); type: functional, organism-based
Streptokinase A = molecular target: T1, Streptokinase A (Streptococcus pyogenes serotype M1, UniProt P10520); test: S. pyogenes streptokinase expression inhibitors, potency, dose response, plasminogen activation absorbance, OD405 (AID 1914); type: functional, Streptococcus pyogenes M1 GAS;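 note: secreted streptokinase activity via plasminogen activation per viability signal from cell pellet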
T1 sequence (P10520 whole entry): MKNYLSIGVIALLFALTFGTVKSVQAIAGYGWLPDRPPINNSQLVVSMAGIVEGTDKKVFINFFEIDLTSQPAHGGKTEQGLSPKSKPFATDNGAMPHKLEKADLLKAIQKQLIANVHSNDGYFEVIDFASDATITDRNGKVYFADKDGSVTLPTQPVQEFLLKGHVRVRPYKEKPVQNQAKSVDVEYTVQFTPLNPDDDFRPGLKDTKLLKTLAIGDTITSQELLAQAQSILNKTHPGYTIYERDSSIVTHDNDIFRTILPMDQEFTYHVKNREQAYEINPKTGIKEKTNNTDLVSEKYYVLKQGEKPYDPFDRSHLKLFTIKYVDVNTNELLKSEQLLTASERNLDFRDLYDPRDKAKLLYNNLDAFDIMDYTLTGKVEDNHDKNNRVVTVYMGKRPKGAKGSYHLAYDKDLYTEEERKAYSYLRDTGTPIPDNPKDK

[3] = inhibitors of intracellular T. cruzi replication, confirmation, NIH3T3 host cells, beta-gal luminescence (AID 2044); type: functional, cell-based;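 note: intracellular parasites grown in NIH/3T3 mouse fibroblasts as host cells; luminescent beta-galactosidase reporter signal from transgenic T. cruzi replicating inside host cells; inhibitors lower the luminescence signal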
[4] = cytotoxicity toward NIH3T3 fibroblasts, dose response, counter-screen, cell-based, ATP luminescence, mouse fibroblasts (AID 2010); type: functional;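 note: cells exposed to compound for about 90 hours before reading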
Streptococcus = test: Group A Streptococcus viability loss, dose response, counter-screen for streptokinase expression inhibitor project, luminescence, BacTiterGlo (AID 1915); type: functional, organism-based;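 note: potency for reduction of bacterial viability or growth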
[5] = HepG2 cell cytotoxicity, dose response, cytotoxicity control, ATP luminescence, cherry-pick, activator set 2 (AID 1053143); type: functional, cell-based
[6] = inhibitors of PGC1a acetylation in cells, dose response, cell-based, cherry-picked samples (AID 720514); type: functional;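 note: potency may reflect raised or lowered acetylation signal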
Genome polyprotein = Genome polyprotein (Hepatitis C virus, UniProt Q2Q167); test: HCV core protein dimerization inhibitors, dose response, biochemical, TR-FRET (AID 2159); set-up: species or system Hepacivirus hominis;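 note: blocks dimerization of HCV core protein measured by TR-FRET between tagged core106 pairs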
[7] = molecular target: Peroxisome proliferator-activated receptor gamma/Nuclear receptor coactivator 2 (Homo sapiens, UniProt P37231); type: functional;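 note: agonist potency for raising coactivator recruitment to the receptor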
[8] = molecular target: Peroxisome proliferator-activated receptor gamma/Nuclear receptor coactivator 1 (Homo sapiens, UniProt P37231); type: functional;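 note: agonist potency as compounds enhance coactivator SRC-1 recruitment to PPARgamma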
[9] = Luminescence Cell-Based Dose Confirmation HTS to Identify Activators of 5'UTR Stem-Loop Driven Alpha-Synuclein mRNA Translation in H4 Neuroglioblastoma Cells. [Related pubchem assays: 1829 (Project Summary), 1814 (Primary HTS)]; type: functional
[10] = Luminescence Cell-Based Dose Response HTS to Identify Activators of Luciferase Translation or Activity in H4 […] Cells. [Related pubchem assays: 1829 (Project Summary), 1814 (Primary HTS)]; type: functional
[11] = molecular target: Peroxisome proliferator-activated receptor gamma/Nuclear receptor coactivator 3 (Homo sapiens, UniProt P37231); type: functional;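 note: agonist potency for raising coactivator recruitment to the receptor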
H4 = test: Luminescence Cell-Based Dose Response HTS to Identify Activators of 5'UTR Stem-Loop Driven Prion Protein mRNA Translation in H4 Neuroglioblastoma Cells. [Related pubchem assays: 1829 (Project Summary), 1814 (Primary HTS)]; type: functional; settings: Homo sapiens
cells [12] = settings: A549
Ephrin type-A receptor 4 = Ephrin type-A receptor 4 (Mus musculus, UniProt Q03137); test: inhibitors of EphA4 binding to KYL peptide, primary screen, biochemical, colorimetric, mouse EphA4 (AID 689); type: functional
[13] = P. falciparum Dd2 growth inhibitors, dose response, SYBR Green, cherry-picked samples (AID 1159567); type: functional, cell-based
[14] = HepG2 cell cytotoxicity, dose response, cytotoxicity control, cherry-picked samples (AID 1159577); type: functional, cell-based
Protein Tat = Protein Tat (Human immunodeficiency virus type 1 group M subtype B (isolate HXB2)(HIV-1), UniProt P04608); type: functional;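 note: tat binding to TAR RNA read out by fluorescence polarization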
[15] = molecular target: Luciferin 4-monooxygenase (Photinus pyralis, UniProt P08659); test: Counter Screen for Luciferase-based Assay Positives. [Related pubchem assays: 620, 618, 411 ]
HT-1080 = test: cytotoxicity in HT1080 fibrosarcoma cells, cell-based, fluorescence readout (AID 620); type: functional; settings: Homo sapiens
[16] = molecular target: T2, Oxysterols receptor LXR-beta (Homo sapiens, UniProt P55055); type: functional, cell-based;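 note: Cell-based luminescence dose-response assay of agonist activity at LXR, run as a confirmatory counterscreen to a daf-12 agonist screen; HEK293 cells with Gal4-LXR fusion and GAL4-driven luciferase reporter; agonist potency from rising luciferase signal of a Gal4-LXR reporter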
T2 sequence (P55055 whole entry): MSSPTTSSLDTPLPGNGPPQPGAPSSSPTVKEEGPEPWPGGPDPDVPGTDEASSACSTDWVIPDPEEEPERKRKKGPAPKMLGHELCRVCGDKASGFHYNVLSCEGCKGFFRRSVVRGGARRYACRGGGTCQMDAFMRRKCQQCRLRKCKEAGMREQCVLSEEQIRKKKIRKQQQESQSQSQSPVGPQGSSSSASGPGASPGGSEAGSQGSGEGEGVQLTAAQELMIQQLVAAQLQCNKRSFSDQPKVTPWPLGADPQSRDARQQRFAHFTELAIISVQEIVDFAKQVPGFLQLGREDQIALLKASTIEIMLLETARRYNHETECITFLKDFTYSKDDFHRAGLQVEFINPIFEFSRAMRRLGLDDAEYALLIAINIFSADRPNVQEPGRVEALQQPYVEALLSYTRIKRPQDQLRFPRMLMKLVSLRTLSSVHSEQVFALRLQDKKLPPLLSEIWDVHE

cells [17] = test: cells; remark: listed apart in the source
[18] = molecular target: Induced myeloid leukemia cell differentiation protein Mcl-1 (Homo sapiens, UniProt Q07820); type: functional
Cytochrome P450 2D6 = Cytochrome P450 2D6 (Homo sapiens, UniProt P10635);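 note: CYP2D6 member of a cytochrome P450 panel assay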
Kallikrein-7 = Kallikrein-7 (Homo sapiens, UniProt P49862); test: Fluorescence Intensity-based biochemical primary high throughput dose response assay to identify activators of kallikrein-7 (K7) zymogen.
[19] = inhibitors of fibronectin matrix deposition, dose response, AH1F cells, Alexa488-FN fluorescence, cherry-picks (AID 1035475); type: functional, cell-based

Sequence of Protein Tat (P04608 whole entry): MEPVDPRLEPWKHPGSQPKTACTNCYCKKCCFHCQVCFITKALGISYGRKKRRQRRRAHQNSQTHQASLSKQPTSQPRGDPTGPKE
Sequence of Ephrin type-A receptor 4 (Q03137 whole entry): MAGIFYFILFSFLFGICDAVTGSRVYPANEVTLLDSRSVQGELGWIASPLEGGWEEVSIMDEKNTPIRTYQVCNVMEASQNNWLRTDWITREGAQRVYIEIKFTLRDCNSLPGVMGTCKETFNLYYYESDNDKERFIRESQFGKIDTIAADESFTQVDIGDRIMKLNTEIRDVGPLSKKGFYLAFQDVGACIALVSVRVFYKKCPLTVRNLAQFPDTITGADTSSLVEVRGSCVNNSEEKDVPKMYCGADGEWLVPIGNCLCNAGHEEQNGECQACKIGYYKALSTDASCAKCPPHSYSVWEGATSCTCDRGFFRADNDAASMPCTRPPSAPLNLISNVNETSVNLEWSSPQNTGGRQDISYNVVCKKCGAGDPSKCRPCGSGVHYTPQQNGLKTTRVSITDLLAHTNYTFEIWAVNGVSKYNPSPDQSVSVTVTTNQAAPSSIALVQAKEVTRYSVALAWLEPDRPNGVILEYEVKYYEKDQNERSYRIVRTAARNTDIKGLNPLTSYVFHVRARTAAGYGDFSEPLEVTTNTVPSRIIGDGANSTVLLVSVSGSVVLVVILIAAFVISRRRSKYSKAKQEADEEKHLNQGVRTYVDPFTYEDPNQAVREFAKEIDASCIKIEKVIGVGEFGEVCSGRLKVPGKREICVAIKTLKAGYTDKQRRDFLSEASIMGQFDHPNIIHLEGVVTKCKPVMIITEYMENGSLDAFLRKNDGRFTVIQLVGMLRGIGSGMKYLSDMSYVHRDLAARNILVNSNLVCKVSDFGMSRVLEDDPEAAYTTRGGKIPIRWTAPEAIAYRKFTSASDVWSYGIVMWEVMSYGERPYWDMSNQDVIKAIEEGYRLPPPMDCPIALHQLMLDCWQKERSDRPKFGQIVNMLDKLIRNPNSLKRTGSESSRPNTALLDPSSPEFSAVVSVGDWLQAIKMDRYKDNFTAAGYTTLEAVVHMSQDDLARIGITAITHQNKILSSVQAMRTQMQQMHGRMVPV
Sequence of Cytochrome P450 2D6 (P10635 whole entry): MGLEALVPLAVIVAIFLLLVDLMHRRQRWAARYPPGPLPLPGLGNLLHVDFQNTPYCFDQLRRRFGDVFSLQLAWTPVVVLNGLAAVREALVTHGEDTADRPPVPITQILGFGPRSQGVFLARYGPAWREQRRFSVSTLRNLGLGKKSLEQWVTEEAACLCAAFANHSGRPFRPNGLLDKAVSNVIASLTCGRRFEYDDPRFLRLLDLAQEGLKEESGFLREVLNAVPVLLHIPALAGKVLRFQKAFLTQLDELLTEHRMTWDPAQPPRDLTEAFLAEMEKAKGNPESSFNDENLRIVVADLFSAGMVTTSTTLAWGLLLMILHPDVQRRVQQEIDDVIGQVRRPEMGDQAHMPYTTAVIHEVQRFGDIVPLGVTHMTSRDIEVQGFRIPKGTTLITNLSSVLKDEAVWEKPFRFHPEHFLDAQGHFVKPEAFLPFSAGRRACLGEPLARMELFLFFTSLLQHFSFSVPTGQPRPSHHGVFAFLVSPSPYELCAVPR
Sequence of Kallikrein-7 (P49862 whole entry): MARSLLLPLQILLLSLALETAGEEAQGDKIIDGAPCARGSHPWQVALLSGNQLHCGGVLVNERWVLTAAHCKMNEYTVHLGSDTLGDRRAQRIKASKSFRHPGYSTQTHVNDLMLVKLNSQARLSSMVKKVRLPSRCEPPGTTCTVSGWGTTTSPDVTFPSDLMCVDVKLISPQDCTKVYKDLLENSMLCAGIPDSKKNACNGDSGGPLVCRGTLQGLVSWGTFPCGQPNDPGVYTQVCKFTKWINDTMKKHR
Sequence of Peroxisome proliferator-activated receptor gamma/Nuclear receptor coactivator 1 (P37231 whole entry): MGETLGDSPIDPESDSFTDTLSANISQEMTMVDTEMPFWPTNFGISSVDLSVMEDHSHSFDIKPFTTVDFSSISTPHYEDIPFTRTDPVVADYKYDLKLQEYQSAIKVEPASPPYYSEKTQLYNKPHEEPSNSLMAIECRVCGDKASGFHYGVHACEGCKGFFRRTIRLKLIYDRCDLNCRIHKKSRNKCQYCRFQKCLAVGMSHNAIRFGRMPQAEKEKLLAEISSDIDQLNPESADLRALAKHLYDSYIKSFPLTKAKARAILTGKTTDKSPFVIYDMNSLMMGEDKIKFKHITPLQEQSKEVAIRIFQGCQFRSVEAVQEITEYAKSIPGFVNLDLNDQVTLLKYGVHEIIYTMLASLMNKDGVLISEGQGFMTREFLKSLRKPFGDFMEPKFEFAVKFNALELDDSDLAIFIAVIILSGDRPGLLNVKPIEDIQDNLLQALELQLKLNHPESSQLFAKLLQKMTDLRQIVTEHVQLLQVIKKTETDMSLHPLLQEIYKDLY
Sequence of Peroxisome proliferator-activated receptor gamma/Nuclear receptor coactivator 1 (Q15788 whole entry, further chain): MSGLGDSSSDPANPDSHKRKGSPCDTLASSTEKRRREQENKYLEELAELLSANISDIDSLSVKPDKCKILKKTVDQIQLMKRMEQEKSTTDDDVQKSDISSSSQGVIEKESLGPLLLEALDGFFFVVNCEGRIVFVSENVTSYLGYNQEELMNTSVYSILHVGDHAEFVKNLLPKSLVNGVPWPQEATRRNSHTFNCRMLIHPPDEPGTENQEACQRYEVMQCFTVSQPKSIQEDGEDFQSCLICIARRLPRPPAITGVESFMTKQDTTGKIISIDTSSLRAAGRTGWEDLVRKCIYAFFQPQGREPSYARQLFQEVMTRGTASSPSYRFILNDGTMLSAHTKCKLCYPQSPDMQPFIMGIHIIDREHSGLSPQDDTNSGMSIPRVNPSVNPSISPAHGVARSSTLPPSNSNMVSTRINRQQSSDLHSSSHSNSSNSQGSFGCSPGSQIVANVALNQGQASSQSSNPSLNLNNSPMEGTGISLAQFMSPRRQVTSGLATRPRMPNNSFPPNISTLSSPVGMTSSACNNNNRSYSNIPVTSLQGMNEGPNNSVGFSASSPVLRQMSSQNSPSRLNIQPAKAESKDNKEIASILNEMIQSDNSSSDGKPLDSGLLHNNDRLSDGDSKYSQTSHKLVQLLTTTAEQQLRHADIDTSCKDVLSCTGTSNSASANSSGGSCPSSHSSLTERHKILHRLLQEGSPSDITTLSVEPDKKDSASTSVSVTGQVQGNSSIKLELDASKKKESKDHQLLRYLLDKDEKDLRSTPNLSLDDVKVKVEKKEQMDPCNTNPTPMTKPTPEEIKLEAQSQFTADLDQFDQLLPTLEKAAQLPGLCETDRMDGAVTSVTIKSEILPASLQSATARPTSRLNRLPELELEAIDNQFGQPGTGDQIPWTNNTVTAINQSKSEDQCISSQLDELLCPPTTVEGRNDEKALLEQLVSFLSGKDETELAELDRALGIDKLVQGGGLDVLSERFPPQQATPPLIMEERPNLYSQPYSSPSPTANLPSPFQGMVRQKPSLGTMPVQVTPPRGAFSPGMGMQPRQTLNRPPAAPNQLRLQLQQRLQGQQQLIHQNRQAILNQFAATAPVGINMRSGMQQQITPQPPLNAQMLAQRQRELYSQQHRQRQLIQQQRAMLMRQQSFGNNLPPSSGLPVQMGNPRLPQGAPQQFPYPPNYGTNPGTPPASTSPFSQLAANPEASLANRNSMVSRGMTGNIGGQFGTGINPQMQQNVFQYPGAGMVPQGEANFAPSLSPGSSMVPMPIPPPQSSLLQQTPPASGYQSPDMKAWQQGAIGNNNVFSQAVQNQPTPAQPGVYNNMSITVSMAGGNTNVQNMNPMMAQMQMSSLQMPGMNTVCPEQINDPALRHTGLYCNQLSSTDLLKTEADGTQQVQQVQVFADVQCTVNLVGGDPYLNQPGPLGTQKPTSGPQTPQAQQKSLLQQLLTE
Sequence of Genome polyprotein (Q2Q167 whole entry): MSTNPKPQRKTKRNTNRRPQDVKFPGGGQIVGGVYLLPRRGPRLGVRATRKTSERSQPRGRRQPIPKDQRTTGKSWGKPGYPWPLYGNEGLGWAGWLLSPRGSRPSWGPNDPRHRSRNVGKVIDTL
Sequence of Induced myeloid leukemia cell differentiation protein Mcl-1 (Q07820 whole entry): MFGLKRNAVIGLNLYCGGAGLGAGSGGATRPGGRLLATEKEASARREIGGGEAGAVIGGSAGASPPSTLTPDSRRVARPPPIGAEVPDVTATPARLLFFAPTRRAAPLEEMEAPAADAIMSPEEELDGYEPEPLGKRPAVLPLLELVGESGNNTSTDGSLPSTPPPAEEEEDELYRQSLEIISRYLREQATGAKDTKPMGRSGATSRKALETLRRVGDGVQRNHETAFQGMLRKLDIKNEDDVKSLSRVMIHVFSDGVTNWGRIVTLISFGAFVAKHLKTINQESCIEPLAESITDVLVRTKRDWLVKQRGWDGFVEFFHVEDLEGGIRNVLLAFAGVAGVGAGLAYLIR
Sequence of Luciferin 4-monooxygenase (P08659 whole entry): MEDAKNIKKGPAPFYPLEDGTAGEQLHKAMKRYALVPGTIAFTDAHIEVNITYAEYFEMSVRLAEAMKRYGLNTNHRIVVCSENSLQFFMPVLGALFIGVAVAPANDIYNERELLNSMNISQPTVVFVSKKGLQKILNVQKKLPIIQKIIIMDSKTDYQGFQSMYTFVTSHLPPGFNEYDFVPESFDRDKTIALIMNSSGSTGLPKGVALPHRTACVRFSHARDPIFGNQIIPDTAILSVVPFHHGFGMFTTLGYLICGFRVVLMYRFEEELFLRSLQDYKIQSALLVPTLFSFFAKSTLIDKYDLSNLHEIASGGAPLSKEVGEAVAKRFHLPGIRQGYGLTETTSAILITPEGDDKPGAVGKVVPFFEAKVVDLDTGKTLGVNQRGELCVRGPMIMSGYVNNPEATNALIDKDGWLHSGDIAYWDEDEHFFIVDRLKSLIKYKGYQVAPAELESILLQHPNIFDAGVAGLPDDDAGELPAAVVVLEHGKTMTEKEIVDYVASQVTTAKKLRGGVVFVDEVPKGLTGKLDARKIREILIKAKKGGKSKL

COc1ccc(C2C(C#N)=C(N)Oc3cc(O)ccc32)cc1Cl (stereo not drawn)
AC50 (cells [1]): 19.9 µM (active)

O=C1CC(C(=O)Nc2ccc(Br)cc2)C2(CCCC2)O1 (stereo not drawn)
AC50 (Caspase-6): 6.92 µM (active)

O=C(Nc1nc2cc3c(cc2s1)OCCO3)c1ccc([N+](=O)[O-])o1
EC50 [2]: 16.6 µM (active)
EC50 (Streptokinase A): > 150 µM (not active)
EC50 [3]: 1.78 µM (active)
EC50 [4]: > 60 µM (not active)
EC50 (Streptococcus): > 150 µM (not active)
AC50 [5]: 26 µM (active)

CO[C@@H]1CN(C)C(=O)c2ccc(NC(=O)c3ccc(Oc4ccccc4)cc3)cc2OC[C@@H](C)N(C(C)=O)C[C@H]1C
AC50 [6]: 24.2 µM (active)

Cc1cccc2c(N=Nc3ccc(S(=O)(=O)Nc4ccc(Cl)cc4)cc3[N+](=O)[O-])c(O)[nH]c12
IC50 (Genome polyprotein): > 49.8 µM (not active)

C[C@@H]1CN([C@H](C)CO)S(=O)(=O)c2ccc(C3=CCCCC3)cc2O[C@H]1CN(C)Cc1ccccc1
AC50 [6]: 11.4 µM (active)

Cc1cccn2c(=O)c3cc(C(=O)NCCN4CCOCC4)c(=N)n(CCc4ccccc4)c3nc12
EC50 [7]: > 79.4 µM (not active)
EC50 [8]: > 79.4 µM (not active)
EC50 [9]: > 120 µM (not active)
EC50 [10]: 11 µM (active)
EC50 [11]: > 79.4 µM (not active)
EC50 (H4): > 120 µM (not active)
AC50 (cells [12]): 31.4 µM (active)
AC50 (cells [1]): 1.28 µM (active)

COc1cc(/C=C2\SC(=S)N(Nc3ncc(C(F)(F)F)cc3Cl)C2=O)cc(OC)c1OC
IC50 (Ephrin type-A receptor 4): 3.57 µM (active)

Cc1ccc(S(=O)(=O)N[C@H]2CC[C@H](CCn3cc(C4CCCC4)nn3)O[C@@H]2CO)cc1
AC50 [13]: 13.6 µM (active)
AC50 [14]: > 39 µM (inactive)

COC(=O)c1ccc(C)c(NC(=O)CCSc2ccccc2)c1
IC50 (Protein Tat): 65.1 µM (inconclusive)

COc1cccc(-c2nc3cc(C)ccc3o2)c1
EC50 [15]: > 100 µM (not active)
EC50 (HT-1080): > 50 µM (not active)
AC50 [5]: 26 µM (active)
EC50 [16]: > 67.6 µM (inactive)
EC50 (cells [17]): > 67.6 µM (inactive)

CCNc1ccc(Br)cc(C(=O)/C=C/c2ccc3c(c2)OCO3)c1=O
IC50 (Ephrin type-A receptor 4): 5.22 µM (active)
IC50 [18]: 2.58 µM (active)
IC50 (Protein Tat): 29.1 µM (inconclusive)
AC50 (Cytochrome P450 2D6): 8.91 µM (inconclusive)

COc1ccc2c3c([nH]c2c1)[C@H](CO)N(S(=O)(=O)c1ccc(C)cc1)CC31CN(Cc2ccccc2)C1
AC50 [13]: 17.5 µM (active)
AC50 [14]: > 39 µM (inactive)

Cc1sc(-c2ccncc2)nc1OC(=O)c1ccc(F)cc1F
EC50 (Kallikrein-7): 26.5 µM (inactive)

O=C(Nc1ccccc1F)N1C[C@H]2[C@@H](c3ccccc31)[C@H](CO)N2C(=O)C1CC1
AC50 [19]: > 70 µM (inactive)

Cc1cccc(Nc2nc(-c3ccccc3)cs2)n1
EC50 [16]: > 67.5 µM (inactive)
EC50 (cells [17]): > 67.5 µM (inactive)
